Experimental data from US20080004266A1, “Method for treating proliferative disorders associated with protooncogene products” (priority 2006, published 2008).

How the values were obtained:
V600E mutant B-raf = test: Degradation of B-raf in A375 melanoma cells (Western blot); format: cell-based, human; conditions: 18 hours, at 0.5 mM and 0.1 mM (so in the source)
Protocol: […] After 18 hours, the cells were lysed with 1× lysis buffer and a western blot was perform, and B-raf was detected with anti-B-raf antibody.

phosphorylated Bcr-Abl = test: Degradation of Bcr-Abl in KU812 cells (Western blot); format: cell-based; conditions: 18 hours
Protocol: KU812 chronic myeloid leukemia cells (ATCC) (2×10^6 cells), which harbor the Philadelphia chromosome that produces Bcr-Abl tyrosine kinase, were treated (0.1 μM and 1.0 μM) with either Compound 226, 17-AAG or 17-DMAG. After 18 hours, the cells were lysed with 1× lysis buffer, and a western blot was perform using anti-BCR-ABL antibody to detect phosphorylated Bcr-Abl.

NPM-ALK [1] = test: Degradation of NPM-ALK in Karpas-299 cells (Western blot); format: cell-based, human; conditions: 18 hours
Protocol: Anaplastic large-cell lymphoma cells, Karpas-299 cells (the German resource center for biological material) (2×10^6 cells), which harbor the fusion protein NPM-ALK, were treated (0.05 μM, 0.1 μM and 0.5 μM) with either Compound 226 or 17-AAG. After 18 hours and the cells were lysed with 1× lysis buffer and a western blot was perform using an anti-ALK antibody to detect and phosphorylated NPM-ALK and total NPM-ALK.

MV 4-11 cells (FLT3-ITD) = test: Cell survival in MV-4-11 cells (Cell Counting Kit-8); format: cell-based, human; conditions: 72 hours
Protocol: Human acute myelogenous leukemia (AML) cell line, MV 4-11 (ATCC #CRL-9591), was obtained from the American Type Culture Collection (ATCC; Manassas, Va., USA). Growth of this tumor cell line is dependent upon the expression of an activated form of the FLT3 tyrosine kinase receptor carrying an internal tandem duplication (ITD) mutation, which is the most common molecular defect associated with AML (K. W. Yee et al., Blood 100:2941-2949, 2002). MV 4-11 cells (20,000 cells/well) were cultured in 96-well plates and maintained at 37° C. for several hours. The cells were incubated at 37° C. for 72 hours with various concentrations of compounds of the invention, 17AAG, or DMAG. 17AAG and DMAG are Hsp90 inhibitors that are currently in clinical trials and are used here as positive controls for Hsp90 inhibition. Cell survival was measured with Cell Counting Kit-8 (Dojindo Laboratories, Cat # CK04).

[2] = system: Kasumi-1 cells (c-Kit N822K); test: Cell survival in Kasumi-1 cells (Cell Counting Kit-8); format: cell-based, human; conditions: 72 hours
Protocol: Kasumi-1 cells (20,000 cells/well) were cultured in 96-well plates and maintained at 37° C. for several hours. […] 17AAG and DMAG are Hsp90 inhibitors that are currently in clinical trials and are used here as positive controls for Hsp90 inhibition. […] Cell survival was measured with Cell Counting Kit-8 (Dojindo Laboratories, Cat # CK04).

[3] = system: NCI-H1975 cells (EGFR T790M and L858R); test: Cell survival in NCI-H1975 cells (Cell Counting Kit-8); format: cell-based, human; conditions: 72 hours
Protocol: Human lung cancer cell line NCI-H1975 which harbors both the T790M and the L858R mutations in EGFR was obtained from American Type Culture Collection. NCI-H1975 (10,000 cells/well) were cultured in 96-well plates and maintained at 37° C. for several hours. The cells were incubated at 37° C. for 72 hours with various concentrations of compound 226 of the invention, 17AAG or DMAG. 17AAG and DMAG are Hsp90 inhibitors that are currently in clinical trials and are used here as positive controls for Hsp90 inhibition. Cell survival was measured with Cell Counting Kit-8 (Dojindo Laboratories, Cat # CK04).

A375 cells (B-raf V600E) = test: Cell survival in A375 melanoma cells (Cell Counting Kit-8); format: cell-based, human; conditions: 72 hours
Protocol: Human melanoma cell line, A375 (2×10^6 cells), which contains the V600E mutation in the B-raf protein that confers constitutive […] kinase activity, was obtained from American Type Culture Collection. A375 cells (20,000 cells/well) were cultured in 96-well plates and maintained at 37° C. for several hours. The cells were incubated at 37° C. for 72 hours with various concentrations of compound 226, 17AAG or 17DMAG. 17AAG and 17DMAG are Hsp90 inhibitors that are currently in clinical trials and are used here as positive controls for Hsp90 inhibition. Cell survival was measured with Cell Counting Kit-8 (Dojindo Laboratories, Cat # CK04).

K562 cells (Bcr-Abl) = test: Cell survival in K562 cells (Cell Counting Kit-8); format: cell-based, human; conditions: 72 hours
Protocol: Growth of this tumor cell line is dependent upon the expression of the Bcr-Abl fusion protein (C. Gambacarti-Passerini et al., Blood Cells Mol. Dis. 23:380-394, 1997). K562 cells (20,000 cells/well) were cultured in 96-well plates and maintained at 37° C. for several hours. […] 17AAG, DMAG, and Radicical are Hsp90 inhibitors that are currently in clinical trials and are used here as positive controls for Hsp90 inhibition. […] Cell survival was measured with Cell Counting Kit-8 (Dojindo Laboratories, Cat # CK04).

[4] = system: Karpas-299 cells (NPM-ALK); test: Cell survival in Karpas-299 cells (Cell Counting Kit-8); format: cell-based, human; conditions: 72 hours
Protocol: Growth of this tumor cell line is dependent upon the expression of the NPM-ALK fusion protein. Karpas-299 cells (20,000 cells/well) were cultured in 96-well plates and maintained at 37° C. for several hours. The cells were incubated at 37° C. for 72 hours with various concentrations of compound 226 of the invention, 17AAG, and 17DMAG. 17AAG and 17DMAG are Hsp90 inhibitors that are currently in clinical trials and are used here as positive controls for Hsp90 inhibition. Cell survival was measured with Cell Counting Kit-8 (Dojindo Laboratories, Cat # CK04).

Flt3 with Hsp90 = conditions: cited from earlier work
[5] = system: leukemia cell that express either wild type FLT3 or FLT3-ITD mutations; conditions: cited from earlier work
Kasumi-1 cells = conditions: mutation in c-kit; cited from earlier work
B-raf = conditions: A375 (V600E) versus CHL cells (wild type B-raf); cited from earlier work
NPM-ALK [6] = conditions: NPM-ALK expressing ALCL cells; cited from earlier work

## C=CCNC1=C2C[C@@H](C)C[C@H](OC)[C@H](O)[C@@H](C)/C=C(\C)[C@H](OC(N)=O)[C@@H](OC)/C=C\C=C(/C)C(=O)NC(=CC1=O)C2=O [Compound 17AAG, 17-allylamino-17-desmethoxygeldanamycin]
V600E mutant B-raf
  degradation of V600E mutant B-raf: did not induce significant degradation
Phosphorylated Bcr-Abl; 0.1 μM
  degradation of phosphorylated Bcr-Abl: did not degrade
Phosphorylated Bcr-Abl; 1.0 μM
  degradation of phosphorylated Bcr-Abl: partially degraded
NPM-ALK [1]; 0.05 μM and 0.1 μM
  degradation of phosphorylated and total NPM-ALK: no effect
NPM-ALK [1]; 0.5 μM
  degradation of phosphorylated and total NPM-ALK: partial degradation
MV 4-11 cells (FLT3-ITD)
  IC50: 35 nM
[2]
  IC50: 685 nM
[3]
  IC50: 446 nM
A375 cells (B-raf V600E)
  IC50: 70 nM
K562 cells (Bcr-Abl)
  IC50: 122 nM
[4]
  IC50: 506 nM
Flt3 with Hsp90
  association of Flt3 with Hsp90: disrupt the association of Flt3 with Hsp90
[5]
  growth of leukemia cells: inhibited
Kasumi-1 cells
  apoptosis: induce apoptosis
B-raf
  degradation of B-raf: degraded more rapidly than in CHL cells
NPM-ALK [6]
  cell cycle and apoptosis: induce cell-cycle arrest and apoptosis
  degradation of NPM-ALK: increased degradation of NPM-ALK
